Series [1] is described as follows: pH of the drug composition. The format is physicochemical. The settings on record: aqueous solution.
The subject of a further series is breast cancer 4T1 cells. The series is described as follows: Tumor weight and tumor inhibition in BALB/c mice bearing breast cancer 4T1 cells.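 As to all read-outs here: subcutaneous grafts in the right axilla, tumors excised and weighed after euthanasia, inhibition rate derived from group mean tumor weight versus the negative control group.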 The following applies: for Tumor inhibition rate / Tumor weight (g) (x ± s) / Tumor weight (x ± s) / Tumor weight: intratumoral 150 μl/mouse every 3 days x3; for Intratumoral injection Tumor inhibition rate / Intratumoral injection Tumor weight: Table 10, avg tumor volume 336 mm^3, 150 μl/mouse every 3 days x3, 5th day after last dose.

Series [2] concerns human breast cancer cells (MDA-MB231). The series is described as follows: Tumor inhibition in nude mice bearing human breast cancer cells (MDA-MB231). The following applies: Example 2; intratumoral 100 μl/mouse every 3 days x3; next day; avg tumor volume 71 mm^3.
Description: (§3) The tumor growth inhibition rate (abbreviated as tumor inhibition rate in the present invention) is calculated through the following equation:
(§4) wherein TW is an average tumor weight of a study group; CW is an average tumor weight of a negative control group.
(§5) In the following experiments, the nude mice bearing human tumor cells and successfully modeled were randomly divided into 1 negative control group and 4 study groups (groups A, B, C, and D). The corresponding negative control was normal saline. The four study drugs were 20% arginine, 3% glutamic hydrochloride, 10% alanyl-glutamine, and 10% glutathione. Each group was injected intratumorally, once every 3 days, for a total of 3 times, each time with 100 μl/mouse. On the next day after the administration of drugs was ended, the animals were euthanized, the tumor weight was measured after anatomy, and the tumor inhibition rate was calculated from the respective negative control group.
In this research experiment, successfully modeled nude mice bearing human breast cancer cells (MDA-MB231) (with an average tumor volume of 71 mm^3) were randomly divided into a negative control group and 4 study groups (groups A, B, C, and D).
Each group was injected intratumorally, once every 3 days, for a total of 3 times, each time with 150 μl/mouse. On the next day after the administration was ended, the animals were euthanized, the tumor weight was measured after anatomy, and the tumor inhibition rate was calculated from the respective negative control group.
Each group was injected intratumorally, once every 3 days, for a total of 3 times, each time with 100 μl/mouse. On the next day after the administration was ended, the animals were euthanized, the tumor weight was measured after anatomy, and the tumor inhibition rate was calculated from the respective negative control group.
In series [3] the test system is human stomach cancer cells (BGC823). The series is described as follows: Tumor inhibition in nude mice bearing human stomach cancer cells (BGC823). The settings on record: Example 2; intratumoral 100 μl/mouse every 3 days x3; next day; avg tumor volume 85 mm^3.
Description: as §3, §4
(§6) In the following experiments, the nude mice bearing human tumor cells and successfully modeled were randomly divided into 1 negative control group and 4 study groups (groups A, B, C, and D). The corresponding negative control was normal saline. […] Each group was injected intratumorally, once every 3 days, for a total of 3 times, each time with 100 μl/mouse. On the next day after the administration of drugs was ended, the animals were euthanized, the tumor weight was measured after anatomy, and the tumor inhibition rate was calculated from the respective negative control group.
In this research experiment, successfully modeled nude mice bearing human stomach cancer cells (BGC823) (with an average tumor volume of 85 mm^3) were randomly divided into a negative control group and 4 study groups (groups A, B, C, and D).
Series [4] deals with human lung cancer cells (A549). Kind of series: Tumor inhibition in nude mice bearing human lung cancer cells (A549). The settings on record: Example 2; intratumoral 100 μl/mouse every 3 days x3; next day; avg tumor volume 83 mm^3.
Description: as §3, §4, §6
In this research experiment, successfully modeled nude mice bearing human lung cancer cells (A549) (with an average tumor volume of 83 mm^3) were randomly divided into a negative control group and 4 study groups (groups A, B, C, and D).
In series [5] the test system is human head and neck cancer cells (Fμda). Kind of series: Tumor inhibition in nude mice bearing human head and neck cancer cells (Fμda). The format is in vivo. The settings on record: Example 2; intratumoral 100 μl/mouse every 3 days x3; next day; avg tumor volume 109 mm^3. From the text:
(§1) One of the core characteristics of tumors is heterogeneity. […] The corresponding negative control was normal saline.

Series [6] has as its system human prostate cancer cells (LNCaP/AR). The series is described as follows: Tumor inhibition in nude mice bearing human prostate cancer cells (LNCaP/AR). The following applies: Example 2; intratumoral 100 μl/mouse every 3 days x3; next day; avg tumor volume 91 mm^3.
Description: as §3, §4, §5
In this research experiment, successfully modeled nude mice bearing human prostate cancer cells (LNCaP/AR) (with an average tumor volume of 91 mm^3) were randomly divided into a negative control group and 4 study groups (groups A, B, C, and D).
(§7) In this series of experiments, successfully modeled nude mice bearing human cancer cells were randomly divided into 1 negative control group and 5 study groups (groups A, B, C, D and E). […] Each group was injected intratumorally, once every 3 days, for a total of 3 times, each time with 150 μl/mouse. On the next day after the administration was ended, the animals were euthanized, the tumor weight was measured after anatomy, and the tumor inhibition rate was calculated from the respective negative control group.
(§8) In this series of experiments, successfully modeled nude mice bearing human cancer cells were randomly divided into 1 negative control group and 6 study groups (groups A, B, C, D, E and F). […] Each group was injected intratumorally, once every 3 days, for a total of 3 times, each time with 100 μl/mouse. On the next day after the administration was ended, the animals were euthanized, the tumor weight was measured after anatomy, and the tumor inhibition rate was calculated from the respective negative control group.
In this series of experiments, successfully modeled nude mice bearing human cancer cells were randomly divided into 1 negative control group and 3 study groups. […] Each group was injected intratumorally, once every 3 days, for a total of 3 times, each time with 150 μl/mouse. On the fifth day after the administration was ended, the animals were euthanized, the tumor weight was measured after anatomy, and the tumor inhibition rate was calculated from the respective negative control group.
The subject of series [7] is human nasopharynx cancer cells (CNE1). Kind of series: Tumor inhibition in nude mice bearing human nasopharynx cancer cells (CNE1). The following applies: Example 2; intratumoral 100 μl/mouse every 3 days x3; next day; avg tumor volume 78 mm^3.
Description: as §3, §4, §6
In this research experiment, successfully modeled nude mice bearing human nasopharynx cancer cells (CNE1) (with an average tumor volume of 78 mm^3) were randomly divided into a negative control group and 4 study groups (groups A, B, C, and D).
Series [8] concerns pancreatic cancer cells PANC-1. The series is described as follows: Tumor inhibition in nude mice bearing pancreatic cancer cells PANC-1. The format is in vivo. The following applies: for Tumor inhibition rate of intraperitoneal injection / Tumor inhibition rate of intratumoral injection: Table 3, avg tumor volume 105 mm^3, 100 μl/mouse every 3 days x3, next day after last dose; for Tumor inhibition rate: Table 4, avg tumor volume 136 mm^3, intratumoral every 3 days x3, ≤150 μl, next day. As to the method:
(§2) They were injected intraperitoneally and intratumorally.
After anatomy, the tumor weight was measured and the tumor inhibition rate was calculated.

The test system of series [9] is human liver cancer cells (HepG2). Kind of series: Tumor weight and tumor inhibition in nude mice bearing HepG2. The format is in vivo. The following applies: for Intratumoral injection Tumor inhibition rate / Intratumoral injection Tumor weight / Tumor inhibition rate of intraperitoneal injection: 5th day after last dose; for Y(%) tumor inhibition rate: intratumoral every 3 days x3, <150 μl, fifth day. On the procedure: as §1, §2
The negative control group was given normal saline. The compositions of the study drug are as shown in the table below: 4 types and concentrations of amino acid based nutrient single drugs (X % amino acid based nutrients), 18 types and concentrations of ineffective absorption drugs (Y % ineffective absorption drugs), 24 compositions comprising various types and concentrations of amino acid based nutrients and ineffectively absorption drugs (X % amino acid based nutrients/Y % ineffectively absorption drugs).
The negative control was normal saline. The compositions of 16 study drugs, as shown in the table below, comprise: a 5-fluorouracil single drug of 4 varying concentrations (X % 5-fluorouracil), and an amino acid based nutrient with 5 varying concentrations (Y % amino acid based nutrient), 7 compositions consisting of 5-fluorouracil of varying concentrations and an amino acid based nutrient of varying concentrations (X % 5-fluorouracil/Y % amino acid based nutrient). […] The dose at each time was: 5-fluorouracil 50 mg/kg, glutathione ≤1 g/kg, and an injection volume was ≤150 μl/mouse.
The negative control was normal saline, the positive control was 1% 5-fluorouracil, and the study drug was 1% methylene blue/10% amino acid based nutrient composition (the type of the amino acid based nutrient is variable). The amino acid based nutrients in the compositions used in study groups 1-13 were: arginine, glycine, cysteine hydrochloride, valine, threonine, proline, histidine hydrochloride, phenylalanine, lysine, leucine, alanine, glutathione, serine, and the study drug used in the study group 14 was 1% methylene blue/5% arginine/5% glycine.

The subject of series [10] is human ovary cancer cells (PA1). The series is described as follows: Tumor inhibition in nude mice bearing human ovary cancer cells (PA1). The settings on record: Example 2; intratumoral 100 μl/mouse every 3 days x3; next day; avg tumor volume 104 mm^3.
Description: as §3, §4, §5, §7, §8
(§9) In this series of experiments, successfully modeled nude mice bearing human cancer cells were randomly divided into 1 negative control group and 3 study groups. […] Each group was injected intratumorally, once every 3 days, for a total of 3 times, each time with 150 μl/mouse.
The test system of series [11] is human thyroid cancer cells (SW579). Kind of series: Tumor inhibition in nude mice bearing human thyroid cancer cells (SW579). The settings on record: Example 2; intratumoral 100 μl/mouse every 3 days x3; next day; avg tumor volume 103 mm^3.
Description: as §3, §4, §5, §7, §8, §9
Setting [12] is: Table 13, avg tumor volume 307 mm^3, 5th day.
Where [13] appears, read: Table 15, avg tumor volume 316 mm^3, 5th day.
Where [14] appears, read: Example 2, intratumoral 100 μl/mouse every 3 days x3, next day, avg tumor volume 81 mm^3.
The mark [15] stands for this setting: Table 8, avg tumor volume 175 mm^3, ≤150 μl/mouse every 3 days x3.
The mark [16] stands for this setting: Table 12, avg tumor volume 317 mm^3, 5th day.
Where [17] appears, read: Table 17, avg tumor volume 317 mm^3, fifth day.
The mark [18] stands for this setting: Table 16, avg tumor volume 169 mm^3, intratumoral every 3 days x3, ≤150 μl/mouse, 5th day.
The mark [19] stands for this setting: Table 6, avg tumor volume 153 mm^3, ≤120 μl/mouse every 3 days x3.
The mark [20] stands for this setting: Table 14, avg tumor volume 325 mm^3, 5th day.

We go through 16 molecules from US20220151935A1, “USE OF AMINO ACID BASED NUTRIENTS AND PHARMACEUTICAL COMPOSITION CONTAINING THE SAME” (priority 2018, published 2022).

Peptide text beside a SMILES is read from it.

Description for breast cancer 4T1 cells: In the following examples, unless otherwise specified, animal tests of subcutaneous transplantation tumors were performed in accordance with test guidelines issued by a drug administration authority. […] The subcutaneous transplantation was carried out according to a conventional method for subcutaneous inoculation of tumor cells. […] Items to be observed, measured and analyzed in the experiments included general status, body weight, food intake, tumor volume, tumor weight, thymus weight, spleen weight, and the like.
as §3, §4
The effects of the co-use of drugs (including efficacy and safety) can theoretically be based on the judgment of q:
q=actual combined effect/theoretical expected effect of simple addition.
When q=1, the actual combined effect meets the theoretical expectation, showing an additive effect; when q<1, the actual combined effect is weaker than the theoretical expectation, showing an antagonistic effect; and when q>1, the actual combined effect exceeds the theoretical expectation, showing a synergic effect. Unless otherwise specified, single-use efficacy of A or B (denoted as EA and EB respectively) and the actual combined efficacy of A/B (denoted as EA+B) are both tumor inhibition rates.
In one experiment, the test animal was a BALB/c mouse, the modeling cells were breast cancer 4T1 cells, and the transplantation tumor was modeled at 1×10^6 cells/mouse under the skin of the animal's right axilla. […] The experimental groups were divided into 1 negative control group (group 0) and 13 study groups (groups 1-13). They were all injected intratumorally. […] Each group was administered once every 3 days for a total of 3 times, each time at an injection dose of 150 μl//mouse. During the administration, general state of the animals and the degree of necrosis of normal tissues around the tumor after the administration were observed. On the 5th day after the administration was ended, the animals were euthanized, and the tumor weight was measured after anatomy to the animals. The tumor inhibition rate was calculated from the negative control group of each administration mode.
In another experiment, the test animal was a BALB/c mouse, the modeling cells were breast cancer 4T1 cells, and the transplantation tumor was modeled at 1×10^6 cells/mouse under the skin of the animal's right axilla. […] Each group was administered by intratumoral injection once every 3 days for a total of 3 times, each time at an injection dose of 150 μl/mouse. On the 5th day after the administration was ended, the animals were euthanized, and the tumor weight was measured after anatomy to the animals. The tumor inhibition rate was calculated from the negative control group.
In another experiment, the test animal was BALB/c mice, the modeling cells were breast cancer 4T1 cells, and the transplantation tumor was modeled at 1×10^6 cells/mouse under the skin of the animal's right axilla. […] Each group was administered by intratumoral injection once every 3 days for a total of 3 times, each time at an injection dose of 150 μl/mouse. On the 5th day after the administration was ended, the animals were euthanized, and the tumor weight was measured after anatomy to the animals. The tumor inhibition rate was calculated from the negative control group.
In another experiment, the test animal was a BALB/c mouse, the modeling cells were breast cancer 4T1 cells, and the transplantation tumor under the skin of the animal's right axilla was modeled at 1×10^6 cells/mouse.

In the case of `O=C([O-])[O-].[Na+].[Na+]` [7% sodium carbonate, sodium carbonate], in series [1] (Table 13), the “Drug pH” value worked out at 10.8. Also, in the series with breast cancer 4T1 cells (setting [12]), the Tumor inhibition rate was determined as 20% and the “Tumor weight (g) (x ± s)” value is 1.81 ± 0.21 g.
Consider `O=C([O-])O.[Na+]` [4% sodium bicarbonate, sodium bicarbonate], for which the “Drug pH” value in [1] (Table 15) is 6.9. Further, in the series with breast cancer 4T1 cells (setting [13]), the Tumor inhibition rate turned out to be 23% and the “Tumor weight (x ± s)” value amounted to 1.68 ± 0.27 g.
Turning to `O=C([O-])[O-].[Na+].[Na+]` [14% sodium carbonate, sodium carbonate], the “Drug pH” value in series [1] (Table 13) was determined as 10.8. In the series with breast cancer 4T1 cells (setting [12]), the Tumor inhibition rate is 35% and the “Tumor weight (g) (x ± s)” value is given as 1.47 ± 0.24 g.
On to `O=C([O-])O.[Na+]` [5% sodium bicarbonate, sodium bicarbonate], for which, in [1] (Table 13), the “Drug pH” value was determined as 6.9. Moreover, in the series with breast cancer 4T1 cells (setting [12]), the Tumor inhibition rate was 21% and the “Tumor weight (g) (x ± s)” value is 1.79 ± 0.24 g.
As to `O=C([O-])O.[Na+]` [2% sodium bicarbonate, sodium bicarbonate], in series [1] (Table 13), the “Drug pH” value was found to be 6.9. Moreover, in the series on breast cancer 4T1 cells (setting [12]), the Tumor inhibition rate is reported as 7% and the “Tumor weight (g) (x ± s)” value was found to be 2.10 ± 0.25 g.
Take `C[C@H](N)C(=O)N[C@@H](CCC(N)=O)C(=O)O` [10% ALA-GLN, Alanyl-glutamine dipeptide] (H-Ala-Gln-OH): the Tumor inhibition rate in series [2] was 57%; in [3] it was 51%; in [4], 52%; in series [5] it was 51%; in [6] it was 61%; in series [7] it was 63%. Moreover, the Tumor inhibition rate in [9] (setting [14]) was found to be 56%; in series [10], 62%; in series [11] it was 59%. Besides, the “Tumor inhibition rate of intraperitoneal injection” value in series [8] is given as 53%. In series [8], the “Tumor inhibition rate of intratumoral injection” value came out at 2%.
For the molecule `O=C([O-])[O-].[Na+].[Na+]` [2.8% sodium carbonate, sodium carbonate], the “Drug pH” value in series [1] (Table 13) turned out to be 10.9. Also, in the series with breast cancer 4T1 cells (setting [12]), the Tumor inhibition rate is reported as 7% and the “Tumor weight (g) (x ± s)” value is reported as 2.10 ± 0.27 g.
For `NCC(=O)O` [20% glycine, Glycine], in the series on breast cancer 4T1 cells, the “Intratumoral injection Tumor inhibition rate” value amounted to 18% and the “Intratumoral injection Tumor weight” value was 1.05 ± 0.32 g. For the same molecule, in series [8], the “Tumor inhibition rate of intraperitoneal injection” value stood at 52% and the “Tumor inhibition rate of intratumoral injection” value was 4%. Moreover, in series [9] (setting [15]), the “Intratumoral injection Tumor inhibition rate” value amounted to 54%, the “Intratumoral injection Tumor weight” value is recorded as 1.17 ± 0.28 g and the “Tumor inhibition rate of intraperitoneal injection” value amounted to 2%.
For the molecule `N=C(N)NCCC[C@H](N)C(=O)O` [10% arginine, L-arginine], the Tumor inhibition rate in the series with breast cancer 4T1 cells (setting [16]) is recorded as 19%; with breast cancer 4T1 cells (setting [17]), 21%; in series [8], 43%; in [9] (Table 11, avg tumor volume 164 mm^3, intratumoral every 3 days x3, ≤150 μl, fifth day after last dose) it was “(43%)”. The “Tumor weight (x ± s)” value in the series with breast cancer 4T1 cells (setting [16]) was determined as 1.91 g. The molecule also came in with a Tumor weight with breast cancer 4T1 cells (setting [17]) of 1.23 ± 0.31 g.
As to `Cl.N[C@@H](CCC(=O)O)C(=O)O` [3% glutamic hydrochloride, L-glutamic hydrochloride], the Tumor inhibition rate in [2] was 61%; in [3], 57%; in series [4], 57%; in [5], 58%; in [6] it was 59%; in series [7], 68%. The Tumor inhibition rate is 69% in series [8] (hydrochloride); 62% in series [9] (setting [14]); “(70%)” in [9] (setting [18]); 61% in series [10]; 63% in series [11]. The “Tumor inhibition rate of intraperitoneal injection” value in series [8] is on record as 68%. For the same molecule, the “Tumor inhibition rate of intratumoral injection” value in [8] was 5%.
As for `NCC(=O)O` [15% glycine, Glycine], the “Drug pH” value in series [1] (Table 15) is listed as 6.8. In the series on breast cancer 4T1 cells (setting [13]), the Tumor inhibition rate was 17% and the “Tumor weight (x ± s)” value came to 1.81 ± 0.26 g.
Turning to `O=C([O-])O.[Na+]` [10% sodium bicarbonate, sodium bicarbonate], the “Drug pH” value in series [1] (Table 13) came to 6.8. In addition, in the series on breast cancer 4T1 cells (setting [12]), the Tumor inhibition rate came to 30% and the “Tumor weight (g) (x ± s)” value came to 1.58 ± 0.22 g.
As for `O=c1[nH]cc(F)c(=O)[nH]1` [1% 5-fluorouracil, 5-fluorouracil], the “Intratumoral injection Tumor inhibition rate” value in the series with breast cancer 4T1 cells is reported as 51%; in [9] (setting [19]) it was 66%; in series [9] (setting [15]), 67%. Also, the “Intratumoral injection Tumor weight” value amounted to 0.63 ± 0.21 g in the series with breast cancer 4T1 cells, 0.78 ± 0.21 g in [9] (setting [19]) and 0.84 ± 0.25 g in [9] (setting [15]). The Tumor inhibition rate with breast cancer 4T1 cells (setting [17]) is recorded as 53%; in series [9] (setting [18]) it was “(66%)”. The same molecule registered a Tumor weight with breast cancer 4T1 cells (setting [17]) of 0.73 ± 0.21 g. For the same molecule, the entries for the “Tumor inhibition rate of intraperitoneal injection” value in series [8], in series [9] (setting [19]) and in [9] (setting [15]) were 63%, 59% and 58%, respectively. In addition, in series [8], the “Tumor inhibition rate of intratumoral injection” value came to 59%. Moreover, the “Y(%) tumor inhibition rate” value in series [9] (Table 18, avg tumor volume 186 mm^3) was 61%; in series [9] (Table 19, avg tumor volume 172 mm^3), 63%.
Regarding `N=C(N)NCCC[C@H](N)C(=O)O` [15% arginine, L-arginine], the “Drug pH” value in [1] (Table 13) is reported as 11.0. In the series on breast cancer 4T1 cells, the “Intratumoral injection Tumor inhibition rate” value turned out to be 28% and the “Intratumoral injection Tumor weight” value was 0.92 ± 0.26 g. In addition, in the series on breast cancer 4T1 cells (setting [12]), the Tumor inhibition rate is reported as 23% and the “Tumor weight (g) (x ± s)” value is 1.74 ± 0.28 g.
In the case of `CC(=O)O` [15% acetic acid, acetic acid], in series [1] (Table 15), the “Drug pH” value worked out at 2.5. Besides, in the series with breast cancer 4T1 cells (setting [13]), the Tumor inhibition rate amounted to 68% and the “Tumor weight (x ± s)” value stood at 0.70 ± 0.18 g.
With `[Na+].[OH-]` [1% NaOH, sodium hydroxide], in series [1] (Table 14), the “Drug pH” value was found to be 11.8. In the series with breast cancer 4T1 cells, the “Intratumoral injection Tumor inhibition rate” value came to 41% and the “Intratumoral injection Tumor weight” value was 0.76 ± 0.24 g. Moreover, in the series on breast cancer 4T1 cells (setting [16]), the Tumor inhibition rate stood at 41% and the “Tumor weight (x ± s)” value stood at 1.39 g. Also, in the series with breast cancer 4T1 cells (setting [20]), the Tumor inhibition rate is given as 42% and the “Tumor weight (x ± s)” value came to 1.41 ± 0.23 g.
